Consider one compound from US20120053235A1, “Dihydromyricetin as an IKK-beta inhibitor used for treatment of arthritis, cancer and autoimmune conditions, and other diseases or disorders” (HONG KONG BAPTIST UNIVERSITY, priority 2010, published 2012).

The test system of assay [1] is isolated human T lymphocytes. Nature of the assay: T cells proliferation assay (BrdU ELISA). Type of assay: cell-based. As to conditions: stimulated with anti-OKT 3/anti-CD28 or PMA/ionomycin, 72 hours; FIGS. 2A and 2B. As for the experimental part:
The isolated human T lymphocytes (1×10^5 cells/well) were stimulated with anti-OKT 3/anti-CD28 antibodies or PMA/ionomycin (P/I) in the presence or absence of DMY for 72 hours.
5-bromo-2′-deoxy-uridine (BrdU, Roche) was added to the cells at the 14th hour before the end of stimulation and it could be incorporated into the DNA of the growing cells during the labeling period. The amount of BrdU incorporated into DNA was quantified as an indicator of cell proliferation. BrdU was determined by ELISA according to manufacturer's instructions.
In general terms: Dividing cells build labelled thymidine or BrdU into new DNA.

The test system of assay [2] is IKK-α/β phosphorylation in human T lymphocytes. Nature of the assay: Measurement of the phosphorylation of IKK α/β (Western blot). The class given is cell-based. As to conditions: mediated by PMA/ionomycin or anti-OKT-3/anti-CD28; FIG. 4B. As to the method:
Human T lymphocytes (4×10^6/well) were pretreated with DMY in different concentrations for 60 minutes and then the cells were stimulated with PMA/ionomycin for 30 minutes.
The whole-cell lysates were prepared by lysing the harvested T cells with lysis buffer (50 mM Tris-HCl, pH 7.5, 250 mM NaCl, 5 mM EDTA, 1 mM DTT, 1% Triton, 50 mM NaF, 1 mM sodium orthovanadate, 0.5 mM PMSF and 1× protease inhibitor mix, Roche). Protein concentrations were determined by using Bio-Rad Protein assay (Bio-Rad Laboratories, Inc. Hercules, Calif.). Equal amount of nuclear proteins or whole-cell lysates were analyzed by 10% SDS-polyacrylamide gel electrophoresis (SDS-PAGE). After electrophoresis, the proteins were electro-transferred to the nitrocellulose membranes. After proteins were transferred, the membranes were blocked by 5% dried milk for 60 minutes and then washed three times for 5 minutes in washing interval with TBS-T (Tween-20, 0.05%). The membranes were then incubated with phosphorylation-IKK-α/β primary antibodies overnight at 4° C. and then washed three times with TBS-T. Afterwards, the membranes were incubated again with HRP-conjugated secondary antibodies for 60 minutes. The blots were developed using the enhanced chemiluminescence (ECL, Amersham Bioscience).

The subject of assay [3] is p38 kinase phosphorylation. Nature of the assay: Phosphorylation of MAPKs (Western blot): p38. The following applies: PMA plus ionomycin 10 minutes; FIG. 7. The class given is cell-based, human. As for the experimental part:
(§1) For determination of the phosphorylation of mitogen-activated protein kinases expression, the cells were stimulated by 20 ng/ml PMA plus […] ionomycin for 10 minutes. The whole-cell lysates were prepared by lysing the harvested T cells with lysis buffer (50 mM Tris-HCl, pH 7.5, 250 mM NaCl, 5 mM EDTA, 1 mM DTT, 1% Triton, 50 mM NaF, 1 mM sodium orthovanadate, 0.5 mM PMSF and 1× protease inhibitor mix, Roche).
(§2) Protein concentrations were determined by using Bio-Rad Protein assay. Equal amounts of nuclear proteins or whole-cell lysates were analyzed by 10% SDS-PAGE. After electrophoresis, the proteins were electro-transferred to the nitrocellulose membranes. After proteins were transferred, the membranes were blocked by 5% dried milk for 60 minutes and then washed three times for 5 min in each washing interval with TBS-T. The membranes were incubated with corresponding primary antibodies overnight at 4° C. and then washed with three times with TBS-T. Afterwards, the membranes were incubated again with HRP-conjugated secondary antibodies for 60 minutes. The blots were developed using the ECL.
For orientation: A western blot detects proteins with antibodies after separation by electrophoresis.

Assay [4] has as its system JNK phosphorylation. Nature of the assay: Phosphorylation of MAPKs (Western blot): JNK. The class given is cell-based, human. As to conditions: PMA plus ionomycin 10 minutes; FIG. 7. As to the method:
as §1, §2

The subject of assay [5] is c-Jun nuclear translocation in human T lymphocytes. Nature of the assay: c-Jun nuclear translocation assay (Western blot). The class given is cell-based. The following applies: pretreated 1 hour, PMA plus ionomycin 120 minutes. As for the experimental part: For c-Jun and c-Fos nuclear translocation assays, the human T lymphocytes (6×10^6/well) were pretreated with DMY for 1 hour, and then stimulated with 20 ng/ml PMA plus […] ionomycin for 120 minutes. After the cells were harvested and washed with PBS twice, the nuclear proteins of cells were then prepared using NucBuster™ Reagents. Afterwards, the washed cells were re-suspended using 60 μl NucBuster™ Reagent 1 per 30 μl of packed cells and processed twice by vortexing for 15 seconds, and followed by the incubation on ice for 5 minutes and second vortexing for 15 seconds, and finally centrifuged at 16000 g for 5 minutes. The supernatants containing cytoplasmic proteins were discarded; the cell pellets were re-suspended in 45 μl of NucBuster Extraction Reagent 2. The same vortexing, icing, and repeated vortexing steps were repeated once to prepare the nuclear proteins of the cells.
Protein concentrations were determined by using Bio-Rad Protein assay. Equal amounts of nuclear proteins or whole-cell lysates were analyzed by 10% SDS-PAGE. After electrophoresis, the proteins were electro-transferred to the nitrocellulose membranes. […]

For assay [6], the system named is c-Fos nuclear localization in HeLa cells. Nature of the assay: Nuclear localization of c-Fos (immunofluorescence). The class given is cell-based. As to conditions: DMY 2 hours then PMA plus ionomycin 2 hours, FIGS. 7 and 8. As to the method: HeLa cells (1×10^5) were seeded on the 6-well plates with cover slips and cultured overnight. The cells were treated with DMY for 2 hours at 37° C and then stimulated with or without 20 ng/ml PMA plus 1 μM ionomycin for another 2 hours. After stimulation, the cells were fixed with 4% paraformaldehyde for 15 minutes at room temperature and permeabilized by 0.1% Triton X-100 and then stained with phalloidin (Invitrogen) for 3 minutes. The cells were incubated with c-Fos antibody for 2 hour after being stained with phalloidin, and the cells were then incubated with FITC-linked secondary antibody for 1 hour after being washed with PBS for 3 times. The slides were dried in air and mounted onto the glass slides.

Consider `O=C1c2c(O)cc(O)cc2O[C@H](c2cc(O)c(O)c(O)c2)[C@H]1O` [DMY, dihydromyricetin], for which, in assay [1], the T cell proliferation result is listed as “block T cell proliferation”. In assay [2], the IKK-α/β phosphorylation result is listed as “inhibit IKK-ca/3 phosphorylation”. The p38 kinase phosphorylation result in assay [3] is on record as “suppressed”. Moreover, the JNK phosphorylation result in assay [4] is on record as “suppressed”. For the same compound, the “nuclear translocation of c-Jun” value in assay [5] is given as “suppress nuclear translocation”. In addition, the c-Fos nuclear localization entry in assay [6] is “suppress c-Fos nuclear localization”.
